Laboratory results taken from patent US7371534B2, “Sensitive intracellular calcium assay” (Discoverx Corporation, priority 2004, dated 2008).

System: Muscarinic receptor
Test: Intracellular calcium assay for the effect of carbachol (Fluo-4 AM, FLIPR peak fluorescence)
Type: cell-based
Settings: for change in signal based on the value at 10 nM: 10 nM to 1000 nM
Experimental: Assay is run in a standard 384-well microtiter plate with a clear bottom. Cells are seeded at a density of 30,000 cells/well, and allowed to grow overnight in standard tissue culture medium, under standard tissue culture conditions.
The next day, tissue culture supernatant is removed, and 50 μl of Calcium Reagent (Molecular Devices, Sunnyvale Calif.) is added to the wells. Plate is incubated for 1 hour at 37EC in a standard tissue culture incubator. This step loads the dye into the cells.
After the 1 hour incubation, the plate is transferred to the Molecular Device FLIPR instrument, which measures the cellular fluorescence (excitation at 488 nm /emission 515 nm filter), in one second intervals. The dye is hydrolyzed in the cell by esterases and becomes fluorescent. The instrument adds 25 microliters of carbachol (agonist for cellular calcium response) 10 seconds after the initiation of the read, and the increase in free cellular calcium resulting from carbachol stimulation is measured as an increase in cellular fluorescent signal.
The reagent: 3 μM Fluo-4 AM dye (Molecular Probes, Eugene Oreg.), 150 nM antibody in HEPES buffer (pH 7.4) containing 1% fetal bovine serum (Sigma), 0.1% Pluronic F127 (BASF) and 0.5 mM probenecid (Sigma) is added.
Instrument software identifies peak fluorescence, which is directly correlated to cellular calcium levels.

Q: How did the “change in signal based on the value at 10 nM” value (commercial reagent) turn out when `C[N+](C)(C)CCOC(N)=O` [Carbachol] was run?
A: Its value is 21%.

Q: And the “change in signal based on the value at 10 nM” value (present reagents)?
A: The value was 161%.

Q: What about the “Calcium Assay, RFU (peak fluorescence)” value (carbachol 10 nM, Commercial Reagents (prior art, Quencher-Ab conjugate -)) of the same compound?
A: The value was 9410 RFU.

Q: What about the “Calcium Assay, RFU (peak fluorescence)” value (carbachol 10 nM, DiscoveRx Reagents (present reagents, Quencher-Ab conjugate +)) of the same compound?
A: Its value is 2589 RFU.

Q: What about the “Calcium Assay, RFU (peak fluorescence)” value (carbachol 1000 nM, Commercial Reagents (prior art, Quencher-Ab conjugate -)) of the same compound?
A: Its value is 11348 RFU.

Q: And the “Calcium Assay, RFU (peak fluorescence)” value (carbachol 1000 nM, DiscoveRx Reagents (present reagents, Quencher-Ab conjugate +))?
A: Its value is 6767 RFU.

Q: And the “difference in signal in going from 10 nM to 1000 nM” value (commercial reagent)?
A: The value was 1938 RFU.

Q: And the “change in signal in going from 10 nM to 1000 nM” value (present reagents)?
A: The value was 4178 RFU.
